Assay results as given in PMC7336998, “Discovery of secondary sulphonamides as IDO1 inhibitors with potent antitumour effects in vivo” (Journal of Enzyme Inhibition and Medicinal Chemistry, 2020).
Entries after “also recorded” stand apart in the source; their conditions may differ.

Assays:
IDO1 = target: T1, IDO1 (Homo sapiens, UniProt P14902); assay: HeLa cell-based IDO1/kynurenine assay
T1 construct: a human cervical cancer cell line HeLa that endogenously expresses IDO1 upon IFN-γ treatment; endogenous in cells; host or cells: HeLa cells treated with human IFN-γ
Experimental: The main bioassays performed in the study, including HeLa cell-based IDO1/kynurenine assay, Western blot analysis, T cell proliferation and Treg cell differentiation experiments, were carried out as described previously.
It is well known that IDO1 is broadly expressed in human cancers and is induced by pro-inflammatory cytokines, such as interferon gamma (IFN-γ) and tumour necrosis factor alpha (TNF-α)[41]. Here we utilised a human cervical cancer cell line HeLa that endogenously expresses IDO1 upon IFN-γ treatment to evaluate the IDO1 inhibitory activity of the synthesised compounds by measuring kynurenine secreted into the media. […] Thus, we also employed this cellular assay to detect false positive IDO1 inhibitors and cytotoxic compounds by measuring HeLa cell viability. Clinical candidate navoximod was used as an assay control.

[1] = target: T2, IDO1 protein in HeLa cells (Homo sapiens, UniProt P14902); assay: Cellular thermal shift assay (CETSA); type: binding; details: IFN-γ 100 ng/mL 24 h, compound 2 h, 43-70 °C, Western blot
T2 construct: a human cervical cancer cell line HeLa that endogenously expresses IDO1 upon IFN-γ treatment; endogenous in cells; host or cells: HeLa cells treated with human IFN-γ
Experimental: HeLa cells were seeded in 6-well culture plates at a density of 2 × 10^5 per well. On the next day, human IFN-γ (100 ng/mL) were added and incubated for 24 h, and then the cells were treated with 5d for 2 h. At the end of incubation, cells collected and subjected to CETSA assay. Briefly, incubated cells were equally divided into 10 parts, each part was heated for 3 min under different temperature (43, 46, 49, 52, 55, 58, 61, 64, 67, and 70 °C), and then the heated cells were kept at −80 °C for 12 h, then at room temperature for 5 min, and the process repeated one more time. After that, cell lysates were extracted by centrifugation at 20,000 × g, 20 min. Levels of IDO1 protein were assessed by Western blot analysis.
The cellular thermal shift assay (CETSA) is usually used to identify compounds and their potential targets. CESTA can detect the target engagement of drugs in a cellular context based on the biophysical principle of ligand-induced thermal stabilisation of target proteins. To this end, we further employed the CETSA assay to detect whether compound 5d could directly bind to the target protein IDO1 in HeLa cells.
Figure 6. Compound 5d could bind to IDO1 protein in HeLa cells. HeLa cells were treated with human IFN-γ (100 ng/mL) for 24 h, and then treated with 5d for 2 h. […] The levels of IDO1 protein were assessed by Western blot analysis.

T1 sequence (P14902 whole entry): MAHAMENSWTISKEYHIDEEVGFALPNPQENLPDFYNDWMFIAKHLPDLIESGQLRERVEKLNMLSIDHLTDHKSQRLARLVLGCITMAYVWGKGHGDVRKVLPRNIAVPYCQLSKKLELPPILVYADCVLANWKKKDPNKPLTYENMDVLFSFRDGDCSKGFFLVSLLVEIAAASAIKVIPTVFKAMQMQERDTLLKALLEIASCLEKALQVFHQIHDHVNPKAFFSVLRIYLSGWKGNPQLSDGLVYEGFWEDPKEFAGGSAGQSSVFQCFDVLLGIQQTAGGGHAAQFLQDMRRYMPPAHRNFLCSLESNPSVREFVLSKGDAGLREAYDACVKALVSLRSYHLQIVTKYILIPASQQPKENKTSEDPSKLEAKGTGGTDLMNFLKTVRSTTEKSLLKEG
T2 sequence (P14902 whole entry): as above

## C=CC(=O)Nc1ccc(S(=O)(=O)NCc2cccc(Cl)c2)cc1 [5d, N-(4-(N-(3-Chlorobenzyl)sulfamoyl)phenyl)acrylamide]
IDO1; HeLa cells, IFN-γ induced IDO1, kynurenine readout
  IC50: 6.26 µM
IDO1; percentage inhibition at 30 μM, IFN-γ-treated HeLa cells, kynurenine in media
  inhibition at 30 µM: 91.1%
[1]
  thermal stability of IDO1 protein: improve the thermal stability of IDO1 protein; also recorded: still maintained the protein stability at 55 °C
